Laboratory results as given in US20100160454A1, “ANTIMICROBIAL AGENTS, COMPOSITIONS AND PRODUCTS CONTAINING THE SAME, AND METHODS OF USING THE COMPOSITIONS AND PRODUCTS” (Eastman Chemical Company, priority 2008, published 2010).

Legend:
Type in all cases: cell-based
[1] = test system: Malassezia furfur (ATCC 96809); assay: Challenge testing against pathogenic fungi, growth rating in broth tubes; design: key: 0: No visible growth; 1: Some growth in tube; 2: Moderate growth in tube; 3: Good growth in tube; 4: Extreme growth in tube
Experimental: (§1) Both Microsporum canis and Trichophyton rubrum were grown on Sabouraud dextrose broth, while Malassezia fufur was grown in Sabouraud dextrose broth supplemented with 2% (v/v) of olive oil and 0.2% (v/v) of Tween™ 80; incubation was at 22°±2° C. under continuous agitation by stirring for 10 days. The organisms were grown to a density of between 1.0×10^3 to 1.0×10^4 cfu/g. The actual inoculation cell density of these challenges were determined by diluting in sterile buffer water and (spread-plate method) plating for enumeration.
(§2) Challenge organisms were used to inoculate tubes of 1,4-CHDM-D90 test concentrations prepared in Sabouraud dextrose broth (or Sabouraud dextrose broth supplemented with olive oil-Tween™ 80 with M. furfur). The inoculations were in the amount of 1.5 mL aliquots of each culture with static incubation at 22±2° C. Subcultures were made at 3-, 14- and 30-day increments. All challenges were conducted in triplicate. In the case of M. canis, the growth response was assessed by the visual presence/absence of growth in the tubes; in the case of T. rubrum, a respiratory (redox) dye (0.2% w/v aqueous INT solution: 2-[4-iodophenyl)-3-4-nitrophenyl]-5-phenyl tetrazolium chloride) was added to the tubes, turning red if the organism was viable; and, finally, in the case of M. furfur, the growth response was assessed based upon pellicle formation in the tubes at the meniscus. The test formulations and challenge test results, as well as 30-day MICs (Minimum Inhibitory Concentration), are in Tables 7-9 for the three organisms using the following growth rating system:
(§3) • 0: No visible growth • 1: Some growth in tube • 2: Moderate growth in tube • 3: Good growth in tube • 4: Extreme growth in tube

[2] = test system: Microsporum canis (ATTC 9084); assay: as above; design: key: 0: No visible growth; 1: Some growth in tube; 2: Moderate growth in tube; 3: Good growth in tube; 4: Extreme growth in tube
Experimental: as §1, §2, §3

[3] = test system: Trichophyton rubrum (ATCC 10218); assay: as above; design: key: 0: No visible growth; 1: Some growth in tube; 2: Moderate growth in tube; 3: Good growth in tube; 4: Extreme growth in tube
Experimental: as §1, §2, §3

[4] = test system: Burkholderia cepacia ATCC 25416; assay: Determination of MIC and MLC in test broth; conditions: Burkholderia cepacia ATCC 25416, 30-day subculture
Experimental: (§4) Two antimicrobial endpoints were investigated. The minimum inhibitory concentration (MIC), which identifies the lowest concentration of test material at which growth for a specific organism is inhibited (by a minimum of 3 log units), reflects “biostatic activity”. The minimum lethal concentration (MLC), or lowest concentration that kills the organism and at which subculturing with growth is not possible, reflects “biocidal activity”. 1,4-CHDM and propylene glycol (PG) were added to previously sterilized screw-cap glass tubes and diluted with Peptone Water Broth with 2 wt % Dextrose (=test broth) to the following dilutions (weight percent): 0.05, 0.075, 0.125, 0.25, 0.5, 0.75, 1.25, 2.5, 5.0, 7.5, 10.0, 15.0, 20.0.
(§5) Each of 12 sets of the above test tubes were challenged with specific organisms (see Table 5) to produce a contamination of between 1.0×10^5 cfu/g and 1.0×10^6 cfu/g in the test broth to which no 1,4-CHDM or propylene glycol had been added. These challenge organisms were prepared in TSB broth, allowed to grow for 72 hours at 35° C.+/−2° C., centrifuged at 2500 rpm for 5 minutes, and the supernatant broth was removed. The microbial pellet was then re-diluted with sterile buffered water to a turbidity that matched previous 1.0×10^6 cfu/g concentrations of that organism's specific growth curve. This challenge was repeated on day 3. Plate counts of both challenges enumerated to within 1.0×10^5+/−5,000 cfu/g after 7 days incubation at 35° C.+/−2° C.
(§6) These tubes were mixed well by inversion (minimum of 25 inversions) and incubated at 35° C.+/−2° C. The tubes were inverted again (minimum of 25 times) on the third and seventh day of incubation and prior to each subculture.
(§7) These subcultures were incubated under optimal conditions and nutrition for no less than 5 days. Subcultures of 0.1 ml, undiluted and diluted 1:10, 1:100, . . . , and 1:10,000, were transferred to plates using the spread plate method onto Plate Count Agar; and SAB Dextrose Agar in addition for the Candida and Aspergillus species; and incubated as follows: 35° C.+/−2° C. for the Plate Count Agar and 22° C.+/−2° C. for the SAB Dextrose plates of Candida albicans and Aspergillus niger. Negative results were not reported before 7 days incubation and counts were performed after no less than 5 days incubation. Counts of Candida and Aspergillus species were made on the agar representing the highest count observed, usually the SAB Dextrose.

[5] = test system: Staphylococcus aureus ATCC 25923; assay: Determination of MIC and MLC in test broth; conditions: Staphylococcus aureus ATCC 25923, 30-day subculture
Experimental: as §4, §5, §6, §7

[6] = test system: Penicillium notatum ATCC 36740; assay: Determination of MIC and MLC in test broth; conditions: Penicillium notatum ATCC 36740, 30-day subculture
Experimental: as §4, §5, §6, §7

[7] = test system: Pseudomonas aeruginosa ATCC 27853; assay: Determination of MIC and MLC in test broth; conditions: Pseudomonas aeruginosa ATCC 27853, 30-day subculture
Experimental: as §4, §5, §6, §7

[8] = test system: Aspergillus niger ATCC 16404; assay: Determination of MIC and MLC in test broth; conditions: Aspergillus niger ATCC 16404, 30-day subculture
Experimental: as §4, §5, §6, §7

OCC1CCC(CO)CC1 (stereo not shown) [1,4-CHDM, 1,4-cyclohexanedimethanol]
2.5 wt %: MIC 30 DAYS [7] | MIC 30 DAYS [8]
20 wt %: MLC 30 DAYS [4] | MLC 30 DAYS [7]
0: M. furfur growth rating, 3 day ([1]; 0.5% weight/volume) | M. furfur growth rating, 3 day ([1]; 1.25% weight/volume) | M. furfur growth rating, 14 day ([1]; 1.25% weight/volume) | M. furfur growth rating, 30 day ([1]; 1.25% weight/volume) | M. furfur growth rating, 3 day ([1]; 2.5% weight/volume) | M. furfur growth rating, 14 day ([1]; 2.5% weight/volume) | M. furfur growth rating, 30 day ([1]; 2.5% weight/volume) | M. furfur growth rating, 3 day ([1]; 5.0% weight/volume) | M. furfur growth rating, 14 day ([1]; 5.0% weight/volume) | M. furfur growth rating, 30 day ([1]; 5.0% weight/volume) | M. canis growth rating, 14 day ([2]; 2.5% weight/volume) | M. canis growth rating, 30 day ([2]; 2.5% weight/volume) | M. canis growth rating, 3 day ([2]; 5.0% weight/volume) | M. canis growth rating, 14 day ([2]; 5.0% weight/volume) | M. canis growth rating, 30 day ([2]; 5.0% weight/volume) | T. rubrum growth rating, 3 day ([3]; 1.25% weight/volume) | T. rubrum growth rating, 14 day ([3]; 1.25% weight/volume) | T. rubrum growth rating, 30 day ([3]; 1.25% weight/volume) | T. rubrum growth rating, 3 day ([3]; 2.5% weight/volume) | T. rubrum growth rating, 14 day ([3]; 2.5% weight/volume) | T. rubrum growth rating, 30 day ([3]; 2.5% weight/volume) | T. rubrum growth rating, 14 day ([3]; 5.0% weight/volume) | T. rubrum growth rating, 30 day ([3]; 5.0% weight/volume)
>20 wt %: MLC 30 DAYS [5] | MLC 30 DAYS [6] | MLC 30 DAYS [8]
1: M. furfur growth rating, 14 day ([1]; 0.5% weight/volume) | M. canis growth rating, 14 day ([2]; 0.5% weight/volume) | M. canis growth rating, 30 day ([2]; 0.5% weight/volume) | M. canis growth rating, 14 day ([2]; 1.25% weight/volume) | M. canis growth rating, 30 day ([2]; 1.25% weight/volume) | T. rubrum growth rating, 3 day ([3]; 0.5% weight/volume) | T. rubrum growth rating, 14 day ([3]; 0.5% weight/volume) | T. rubrum growth rating, 30 day ([3]; 0.5% weight/volume) | T. rubrum growth rating, 3 day ([3]; 5.0% weight/volume)
2: M. furfur growth rating, 30 day ([1]; 0.5% weight/volume) | M. canis growth rating, 3 day ([2]; 0.5% weight/volume) | M. canis growth rating, 3 day ([2]; 1.25% weight/volume) | M. canis growth rating, 3 day ([2]; 2.5% weight/volume)
5 wt %: MIC 30 DAYS [5] | MIC 30 DAYS [6]
1.25 wt %: MIC 30 DAYS [4]

O=C([O-])CN(CCN(CC(=O)[O-])CC(=O)O)CC(=O)O.[Na+].[Na+] [EDTA, Na2EDTA]
0: M. furfur growth rating, 3 day ([1]; 0.5% weight/volume) | M. furfur growth rating, 14 day ([1]; 0.5% weight/volume) | M. furfur growth rating, 30 day ([1]; 0.5% weight/volume) | M. furfur growth rating, 3 day ([1]; 1.25% weight/volume) | M. furfur growth rating, 14 day ([1]; 1.25% weight/volume) | M. furfur growth rating, 30 day ([1]; 1.25% weight/volume) | M. furfur growth rating, 3 day ([1]; 2.5% weight/volume) | M. furfur growth rating, 14 day ([1]; 2.5% weight/volume) | M. furfur growth rating, 30 day ([1]; 2.5% weight/volume) | M. furfur growth rating, 3 day ([1]; 5.0% weight/volume) | M. furfur growth rating, 14 day ([1]; 5.0% weight/volume) | M. furfur growth rating, 30 day ([1]; 5.0% weight/volume) | M. canis growth rating, 30 day ([2]; 0.5% weight/volume) | M. canis growth rating, 30 day ([2]; 1.25% weight/volume) | M. canis growth rating, 30 day ([2]; 2.5% weight/volume) | M. canis growth rating, 14 day ([2]; 5.0% weight/volume) | M. canis growth rating, 30 day ([2]; 5.0% weight/volume) | T. rubrum growth rating, 14 day ([3]; 0.5% weight/volume) | T. rubrum growth rating, 30 day ([3]; 0.5% weight/volume) | T. rubrum growth rating, 3 day ([3]; 1.25% weight/volume) | T. rubrum growth rating, 14 day ([3]; 1.25% weight/volume) | T. rubrum growth rating, 30 day ([3]; 1.25% weight/volume) | T. rubrum growth rating, 14 day ([3]; 2.5% weight/volume) | T. rubrum growth rating, 30 day ([3]; 2.5% weight/volume) | T. rubrum growth rating, 14 day ([3]; 5.0% weight/volume) | T. rubrum growth rating, 30 day ([3]; 5.0% weight/volume)
1: M. canis growth rating, 14 day ([2]; 0.5% weight/volume) | M. canis growth rating, 14 day ([2]; 1.25% weight/volume) | M. canis growth rating, 14 day ([2]; 2.5% weight/volume) | T. rubrum growth rating, 3 day ([3]; 0.5% weight/volume) | T. rubrum growth rating, 3 day ([3]; 2.5% weight/volume) | T. rubrum growth rating, 3 day ([3]; 5.0% weight/volume)
2: M. canis growth rating, 3 day ([2]; 0.5% weight/volume) | M. canis growth rating, 3 day ([2]; 1.25% weight/volume) | M. canis growth rating, 3 day ([2]; 2.5% weight/volume) | M. canis growth rating, 3 day ([2]; 5.0% weight/volume)

CC1(C)C(O)C(C)(C)C1O (stereo not shown) [TMCBD, 2,2,4,4-tetramethyl-1,3-cyclobutanediol]
1: M. furfur growth rating, 14 day ([1]; 0.5% weight/volume) | M. furfur growth rating, 14 day ([1]; 1.25% weight/volume) | M. canis growth rating, 14 day ([2]; 0.5% weight/volume) | M. canis growth rating, 30 day ([2]; 0.5% weight/volume) | M. canis growth rating, 14 day ([2]; 1.25% weight/volume) | M. canis growth rating, 14 day ([2]; 2.5% weight/volume) | M. canis growth rating, 30 day ([2]; 2.5% weight/volume) | M. canis growth rating, 14 day ([2]; 5.0% weight/volume) | M. canis growth rating, 30 day ([2]; 5.0% weight/volume) | T. rubrum growth rating, 3 day ([3]; 0.5% weight/volume) | T. rubrum growth rating, 14 day ([3]; 0.5% weight/volume) | T. rubrum growth rating, 30 day ([3]; 1.25% weight/volume)
0: M. furfur growth rating, 3 day ([1]; 0.5% weight/volume) | M. furfur growth rating, 3 day ([1]; 1.25% weight/volume) | M. furfur growth rating, 3 day ([1]; 2.5% weight/volume) | M. furfur growth rating, 14 day ([1]; 2.5% weight/volume) | M. furfur growth rating, 30 day ([1]; 2.5% weight/volume) | M. furfur growth rating, 3 day ([1]; 5.0% weight/volume) | M. furfur growth rating, 14 day ([1]; 5.0% weight/volume) | M. furfur growth rating, 30 day ([1]; 5.0% weight/volume) | M. canis growth rating, 30 day ([2]; 1.25% weight/volume) | T. rubrum growth rating, 30 day ([3]; 0.5% weight/volume) | T. rubrum growth rating, 3 day ([3]; 1.25% weight/volume) | T. rubrum growth rating, 14 day ([3]; 1.25% weight/volume) | T. rubrum growth rating, 3 day ([3]; 2.5% weight/volume) | T. rubrum growth rating, 14 day ([3]; 2.5% weight/volume) | T. rubrum growth rating, 30 day ([3]; 2.5% weight/volume) | T. rubrum growth rating, 3 day ([3]; 5.0% weight/volume) | T. rubrum growth rating, 14 day ([3]; 5.0% weight/volume) | T. rubrum growth rating, 30 day ([3]; 5.0% weight/volume)
2: M. furfur growth rating, 30 day ([1]; 0.5% weight/volume) | M. furfur growth rating, 30 day ([1]; 1.25% weight/volume) | M. canis growth rating, 3 day ([2]; 0.5% weight/volume) | M. canis growth rating, 3 day ([2]; 1.25% weight/volume) | M. canis growth rating, 3 day ([2]; 2.5% weight/volume) | M. canis growth rating, 3 day ([2]; 5.0% weight/volume)
